Active and inactive are the calls of the source.
Columns and labels:
[1] = inhibitors of HIV Env-driven cell fusion, dose response, cherry-pick (AID 652057); assay type: functional, cell-based
[2] = ZM109 Env clade C HIV-1 fusion inhibitors, dose response, HeLa effector, CEM target cells, luciferase, cherry-pick (AID 652058); assay type: functional, cell-based
[3] = off-target signal loss in HeLa-CEM21 co-culture – HeLa F-luc CTL cells, cherry-picked, counter-screen for HIV-1 Env fusion inhibitor project, dose response (AID 652040); assay type: functional, cell-based;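 further: potency for signal decrease marking cytotoxic or nonspecific inhibition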
[4] = inhibitors of clade B AD8 Env fusion, dose response, cell-based, cherry-pick (AID 652062); assay type: functional;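 further: luciferase signal from cell-cell fusion driven by HIV-1 clade B AD8 Env; potency is for inhibitors of fusion seen as a drop in luminescence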
[5] = inhibitors of firefly luciferase expression or activity, dose response, H4 neuroglioma cells, luminescence (AID 1990); assay type: functional, cell-based
[6] = Luminescence Cell-Based Dose Response HTS to Identify Inhibitors of 5'UTR Stem-Loop Driven Prion Protein mRNA Translation in H4 Neuroglioblastoma Cells. [Related pubchem assays: 1827 (Project Summary), 1813 (Primary HTS)]; assay type: functional
[7] = inhibitors of SNCA 5'UTR-driven reporter translation, confirmation, H4 neuroglioma cells, luminescence (AID 1988); assay type: functional, cell-based
[8] = biological target: Eukaryotic translation initiation factor 4E (Mus musculus, UniProt P63073); assay: eIF4E–eIF4G protein interaction inhibitors, dose response, biochemical, TR-FRET (AID 855); assay type: functional;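 further: potency for disrupting eIF4E binding to eIF4GI seen as loss of FRET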
[9] = intracellular Trypanosoma cruzi inhibitors in host cells – cell-based, plate reader, cherry-pick samples, set 3, dose response (AID 651818); assay type: functional;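 further: compounds incubated with infected cells for about four days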
[10] = biological target: T1, Replicative DNA helicase DnaB (Mycobacterium tuberculosis, UniProt P9WMR3); assay: DnaB intein splicing inhibitors, dose response, biochemical, cell-free fluorescence (AID 449749); assay type: functional
T1 sequence (P9WMR3 whole entry): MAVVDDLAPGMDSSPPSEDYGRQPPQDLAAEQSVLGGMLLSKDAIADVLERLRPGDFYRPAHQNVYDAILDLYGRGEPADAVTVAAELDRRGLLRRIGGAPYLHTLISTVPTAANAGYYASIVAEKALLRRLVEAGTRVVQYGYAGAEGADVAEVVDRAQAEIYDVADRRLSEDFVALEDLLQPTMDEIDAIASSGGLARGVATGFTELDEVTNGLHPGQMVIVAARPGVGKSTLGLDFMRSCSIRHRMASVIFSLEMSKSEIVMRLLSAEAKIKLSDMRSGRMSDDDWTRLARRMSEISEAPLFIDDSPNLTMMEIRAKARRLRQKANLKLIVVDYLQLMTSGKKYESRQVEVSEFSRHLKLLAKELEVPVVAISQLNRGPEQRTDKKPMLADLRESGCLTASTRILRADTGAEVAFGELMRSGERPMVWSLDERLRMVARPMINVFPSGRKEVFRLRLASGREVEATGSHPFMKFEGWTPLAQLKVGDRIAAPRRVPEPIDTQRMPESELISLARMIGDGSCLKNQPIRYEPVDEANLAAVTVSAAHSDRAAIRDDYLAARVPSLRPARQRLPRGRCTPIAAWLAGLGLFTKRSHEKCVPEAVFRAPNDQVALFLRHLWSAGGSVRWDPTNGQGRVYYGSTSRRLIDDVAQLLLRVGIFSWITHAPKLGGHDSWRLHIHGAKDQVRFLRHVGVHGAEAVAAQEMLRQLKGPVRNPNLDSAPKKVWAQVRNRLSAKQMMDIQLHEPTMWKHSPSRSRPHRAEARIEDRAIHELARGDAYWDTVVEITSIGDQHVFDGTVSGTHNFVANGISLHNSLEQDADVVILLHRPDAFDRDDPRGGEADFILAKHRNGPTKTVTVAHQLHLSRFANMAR

Protein RecA = biological target: T2, Protein RecA (Mycobacterium tuberculosis, UniProt P9WHJ3); assay: Fluorescence Cell-Free Homogeneous Dose Retest to Identify Inhibitors of RecA-Intein Splicing Activity. [Related pubchem assays (depositor defined):AID2097, AID2223, AID489010, AID492950]; assay type: functional
T2 sequence (P9WHJ3 whole entry): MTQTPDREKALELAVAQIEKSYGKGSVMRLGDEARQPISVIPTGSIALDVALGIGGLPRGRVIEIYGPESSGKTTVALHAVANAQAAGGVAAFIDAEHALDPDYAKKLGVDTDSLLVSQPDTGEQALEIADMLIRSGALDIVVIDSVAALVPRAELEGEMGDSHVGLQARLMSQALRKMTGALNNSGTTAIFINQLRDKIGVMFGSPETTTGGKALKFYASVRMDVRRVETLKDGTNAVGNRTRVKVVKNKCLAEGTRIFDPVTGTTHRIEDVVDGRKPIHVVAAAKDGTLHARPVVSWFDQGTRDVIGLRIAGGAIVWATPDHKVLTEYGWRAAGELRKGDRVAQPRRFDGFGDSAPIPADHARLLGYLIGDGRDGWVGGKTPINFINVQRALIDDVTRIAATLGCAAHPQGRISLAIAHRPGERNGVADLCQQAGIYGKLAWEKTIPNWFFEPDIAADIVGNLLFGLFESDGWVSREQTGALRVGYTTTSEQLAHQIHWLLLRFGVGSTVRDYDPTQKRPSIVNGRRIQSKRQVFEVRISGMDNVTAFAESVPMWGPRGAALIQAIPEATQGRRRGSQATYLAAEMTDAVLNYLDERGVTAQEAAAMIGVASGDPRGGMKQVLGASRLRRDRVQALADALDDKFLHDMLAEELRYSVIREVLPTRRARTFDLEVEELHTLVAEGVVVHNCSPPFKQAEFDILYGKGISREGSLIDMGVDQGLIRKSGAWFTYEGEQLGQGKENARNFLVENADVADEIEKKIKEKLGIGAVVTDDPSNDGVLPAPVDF

[11] = biological target: T3, Polyadenylate-binding protein 1 (Homo sapiens, UniProt P11940); assay: PABP1 MLLE–PAM2 interaction inhibitors, dose response, miRNA deadenylation inhibitor project, biochemical, fluorescence polarization, Cy5-PAM2 peptide, secondary (AID 602260); assay type: functional; conditions: read-out: IC50_Mean
[12] = biological target: T3, Polyadenylate-binding protein 1; assay: PABP1 MLLE–PAM2 binding inhibitor potency, dose response, biochemical, fluorescence polarization, FITC-PAM2 peptide (AID 602259); assay type: functional; conditions: read-out: IC50_Mean
Estrogen receptor beta [13] = biological target: T4, Estrogen receptor beta (Homo sapiens, UniProt Q92731);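 further: recombinant ER-beta bound to coactivator SRC1 peptide in presence of estradiol agonist; inhibitors block coactivator peptide binding and lower the FRET signal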
Estrogen receptor beta [14] = biological target: T4, Estrogen receptor beta; assay: ERβ–SRC-3 coactivator interaction inhibitors, confirmation, orthogonal assay, biochemical, ELISA, streptavidin-HRP readout (AID 1060)
Large T antigen = Large T antigen (Simian virus 40, UniProt P03070); assay type: functional, Betapolyomavirus macacae;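 further: Confirmatory-stage PubChem screen for compounds that inhibit SV40 T antigen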
Prothrombin = Prothrombin (Homo sapiens, UniProt P00734); assay: Thrombin 1536 HTS Dose Response Confirmation. [Related pubchem assays: 1046 (Thrombin 1536 HTS; hits were confirmed in this assay)]; assay type: functional
Ephrin type-A receptor 4 = Ephrin type-A receptor 4 (Mus musculus, UniProt Q03137); assay: inhibitors of EphA4 binding to KYL peptide, primary screen, biochemical, colorimetric, mouse EphA4 (AID 689); assay type: functional
[15] = biological target: FAD-linked sulfhydryl oxidase ALR (Homo sapiens, UniProt P55789); assay: inhibitors of human ALR sulfhydryl oxidase, dose response, biochemical, H2O2 detection, luminescence, cherry-pick (AID 493248)
[16] = biological target: Glyceraldehyde-3-phosphate dehydrogenase (Homo sapiens, UniProt P04406)
Cytochrome P450 2C9 = Cytochrome P450 2C9 (Homo sapiens, UniProt P11712)
Cytochrome P450 2C19 = Cytochrome P450 2C19 (Homo sapiens, UniProt P33261); assay: Cytochrome panel assay with activity outcomes. Panel member name: p450-cyp2c19 Compounds with AC50 equal or less than 10 uM are considered active; assay type: functional; conditions: read-out: AC50
[17] = biological target: T5, Histone-lysine N-methyltransferase NSD2 (Homo sapiens, UniProt O96028); assay type: biochemical
T5 sequence (O96028 whole entry): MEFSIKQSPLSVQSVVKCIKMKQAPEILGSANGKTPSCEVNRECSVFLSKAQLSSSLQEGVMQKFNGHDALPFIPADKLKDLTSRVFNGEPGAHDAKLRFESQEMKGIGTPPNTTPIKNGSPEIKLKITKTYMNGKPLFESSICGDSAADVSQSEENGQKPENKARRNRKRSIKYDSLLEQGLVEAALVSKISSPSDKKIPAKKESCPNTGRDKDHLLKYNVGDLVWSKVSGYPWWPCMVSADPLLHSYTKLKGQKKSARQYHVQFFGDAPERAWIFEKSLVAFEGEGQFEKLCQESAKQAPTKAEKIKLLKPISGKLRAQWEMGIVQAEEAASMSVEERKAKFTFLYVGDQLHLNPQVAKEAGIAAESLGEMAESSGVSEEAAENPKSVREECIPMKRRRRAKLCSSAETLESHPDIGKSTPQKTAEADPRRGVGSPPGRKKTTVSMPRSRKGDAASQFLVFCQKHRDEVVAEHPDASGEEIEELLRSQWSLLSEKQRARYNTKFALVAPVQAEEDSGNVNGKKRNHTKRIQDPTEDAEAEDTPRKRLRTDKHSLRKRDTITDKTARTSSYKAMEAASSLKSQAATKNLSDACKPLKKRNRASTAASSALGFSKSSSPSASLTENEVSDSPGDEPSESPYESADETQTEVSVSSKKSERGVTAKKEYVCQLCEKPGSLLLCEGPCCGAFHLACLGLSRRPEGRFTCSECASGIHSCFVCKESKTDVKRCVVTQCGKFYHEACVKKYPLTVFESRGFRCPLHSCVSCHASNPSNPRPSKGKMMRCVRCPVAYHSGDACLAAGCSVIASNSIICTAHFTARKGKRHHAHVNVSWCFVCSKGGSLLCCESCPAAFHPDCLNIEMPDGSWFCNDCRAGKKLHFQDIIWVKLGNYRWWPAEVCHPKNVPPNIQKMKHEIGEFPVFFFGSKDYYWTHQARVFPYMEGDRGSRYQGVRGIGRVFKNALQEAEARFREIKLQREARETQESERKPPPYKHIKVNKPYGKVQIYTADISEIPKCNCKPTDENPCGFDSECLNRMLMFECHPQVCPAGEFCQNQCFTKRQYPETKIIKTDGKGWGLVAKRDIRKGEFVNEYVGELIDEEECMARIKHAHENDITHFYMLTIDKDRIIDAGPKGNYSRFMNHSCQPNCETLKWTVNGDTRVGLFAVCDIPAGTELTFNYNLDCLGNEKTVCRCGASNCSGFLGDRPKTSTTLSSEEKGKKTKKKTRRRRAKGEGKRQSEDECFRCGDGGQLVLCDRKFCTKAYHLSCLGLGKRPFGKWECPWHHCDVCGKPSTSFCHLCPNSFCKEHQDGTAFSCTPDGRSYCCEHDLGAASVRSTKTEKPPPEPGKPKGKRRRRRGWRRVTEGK

T3 sequence (P11940 whole entry): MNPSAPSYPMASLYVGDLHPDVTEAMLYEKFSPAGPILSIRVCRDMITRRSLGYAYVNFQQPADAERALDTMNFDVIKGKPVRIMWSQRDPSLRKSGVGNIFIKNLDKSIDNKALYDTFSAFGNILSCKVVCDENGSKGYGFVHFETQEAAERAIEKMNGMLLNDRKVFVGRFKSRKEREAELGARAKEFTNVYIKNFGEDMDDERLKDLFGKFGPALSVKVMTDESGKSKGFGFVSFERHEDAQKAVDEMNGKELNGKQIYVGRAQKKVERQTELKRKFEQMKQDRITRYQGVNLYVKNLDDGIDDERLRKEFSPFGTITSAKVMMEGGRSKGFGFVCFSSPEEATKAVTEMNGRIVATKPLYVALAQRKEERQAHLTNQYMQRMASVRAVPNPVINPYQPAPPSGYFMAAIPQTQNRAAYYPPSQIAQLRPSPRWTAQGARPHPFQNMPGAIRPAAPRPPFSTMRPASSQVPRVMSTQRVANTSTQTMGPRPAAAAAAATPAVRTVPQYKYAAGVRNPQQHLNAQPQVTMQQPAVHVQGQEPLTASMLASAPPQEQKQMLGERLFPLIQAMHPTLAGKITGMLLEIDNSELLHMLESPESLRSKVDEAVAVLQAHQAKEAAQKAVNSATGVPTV
Chain of Eukaryotic translation initiation factor 4E (P63073 whole entry): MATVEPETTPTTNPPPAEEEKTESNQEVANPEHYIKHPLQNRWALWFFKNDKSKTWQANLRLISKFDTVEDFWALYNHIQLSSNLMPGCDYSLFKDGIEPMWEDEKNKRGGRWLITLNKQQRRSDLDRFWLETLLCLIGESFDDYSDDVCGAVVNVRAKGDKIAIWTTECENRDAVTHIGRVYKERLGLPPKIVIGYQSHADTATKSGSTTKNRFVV
Chain of Large T antigen (P03070 whole entry): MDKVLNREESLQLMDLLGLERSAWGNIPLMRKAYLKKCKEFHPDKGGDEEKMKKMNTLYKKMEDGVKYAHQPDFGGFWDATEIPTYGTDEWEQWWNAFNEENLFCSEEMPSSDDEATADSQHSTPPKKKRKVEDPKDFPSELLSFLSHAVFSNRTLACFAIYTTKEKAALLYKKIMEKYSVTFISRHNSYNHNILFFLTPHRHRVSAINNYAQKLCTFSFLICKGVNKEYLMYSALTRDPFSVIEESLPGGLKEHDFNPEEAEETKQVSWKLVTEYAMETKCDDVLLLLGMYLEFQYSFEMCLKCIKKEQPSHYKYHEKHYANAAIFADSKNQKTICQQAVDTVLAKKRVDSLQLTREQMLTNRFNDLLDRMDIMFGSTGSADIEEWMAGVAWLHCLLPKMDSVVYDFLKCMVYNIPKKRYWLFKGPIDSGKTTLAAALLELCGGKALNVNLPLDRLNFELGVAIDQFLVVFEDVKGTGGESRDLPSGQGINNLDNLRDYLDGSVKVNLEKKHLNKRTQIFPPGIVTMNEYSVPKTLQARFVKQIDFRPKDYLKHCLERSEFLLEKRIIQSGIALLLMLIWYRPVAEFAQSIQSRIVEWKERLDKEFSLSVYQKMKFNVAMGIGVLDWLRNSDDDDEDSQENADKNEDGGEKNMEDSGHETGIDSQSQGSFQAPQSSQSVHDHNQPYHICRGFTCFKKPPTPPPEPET
T4 sequence (Q92731 whole entry): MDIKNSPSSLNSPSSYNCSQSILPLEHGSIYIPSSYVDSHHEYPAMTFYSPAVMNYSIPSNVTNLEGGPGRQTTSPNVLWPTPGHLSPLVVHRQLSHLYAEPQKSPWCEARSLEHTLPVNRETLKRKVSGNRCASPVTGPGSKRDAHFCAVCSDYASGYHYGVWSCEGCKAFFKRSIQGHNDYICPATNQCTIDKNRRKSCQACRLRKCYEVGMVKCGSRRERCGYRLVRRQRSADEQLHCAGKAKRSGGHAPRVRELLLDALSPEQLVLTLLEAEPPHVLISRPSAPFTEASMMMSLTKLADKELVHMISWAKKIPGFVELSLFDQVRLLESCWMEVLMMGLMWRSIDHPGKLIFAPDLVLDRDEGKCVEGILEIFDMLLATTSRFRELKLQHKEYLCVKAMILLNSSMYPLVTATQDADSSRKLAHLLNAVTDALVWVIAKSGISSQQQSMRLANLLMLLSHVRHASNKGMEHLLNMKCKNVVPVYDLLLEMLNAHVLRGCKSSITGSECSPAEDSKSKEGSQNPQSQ
Chain of Ephrin type-A receptor 4 (Q03137 whole entry): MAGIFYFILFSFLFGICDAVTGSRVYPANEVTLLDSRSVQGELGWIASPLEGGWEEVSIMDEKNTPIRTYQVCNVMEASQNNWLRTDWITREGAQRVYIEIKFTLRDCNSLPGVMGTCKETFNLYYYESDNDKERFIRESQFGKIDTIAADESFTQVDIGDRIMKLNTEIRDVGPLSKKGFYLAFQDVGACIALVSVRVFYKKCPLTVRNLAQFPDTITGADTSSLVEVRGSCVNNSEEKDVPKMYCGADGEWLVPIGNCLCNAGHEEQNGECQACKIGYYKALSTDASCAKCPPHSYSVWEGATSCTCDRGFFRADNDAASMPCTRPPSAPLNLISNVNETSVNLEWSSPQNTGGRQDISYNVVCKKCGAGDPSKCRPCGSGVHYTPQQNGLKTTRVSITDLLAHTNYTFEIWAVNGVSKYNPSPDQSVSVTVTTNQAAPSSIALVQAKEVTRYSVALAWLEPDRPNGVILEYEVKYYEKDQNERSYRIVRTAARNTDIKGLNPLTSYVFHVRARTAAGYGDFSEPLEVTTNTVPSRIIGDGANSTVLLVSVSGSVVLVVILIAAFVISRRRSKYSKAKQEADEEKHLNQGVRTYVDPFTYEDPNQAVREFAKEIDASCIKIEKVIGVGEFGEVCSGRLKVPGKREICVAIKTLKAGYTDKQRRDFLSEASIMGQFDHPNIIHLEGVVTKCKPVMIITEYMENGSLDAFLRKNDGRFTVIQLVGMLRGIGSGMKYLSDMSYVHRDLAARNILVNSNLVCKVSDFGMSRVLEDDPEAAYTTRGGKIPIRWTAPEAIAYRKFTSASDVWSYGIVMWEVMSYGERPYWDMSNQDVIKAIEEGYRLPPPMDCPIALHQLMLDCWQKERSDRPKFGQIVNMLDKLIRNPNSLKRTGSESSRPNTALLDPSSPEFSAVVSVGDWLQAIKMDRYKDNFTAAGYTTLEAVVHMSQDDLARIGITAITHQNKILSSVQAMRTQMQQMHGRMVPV
Chain of Cytochrome P450 2C19 (P33261 whole entry): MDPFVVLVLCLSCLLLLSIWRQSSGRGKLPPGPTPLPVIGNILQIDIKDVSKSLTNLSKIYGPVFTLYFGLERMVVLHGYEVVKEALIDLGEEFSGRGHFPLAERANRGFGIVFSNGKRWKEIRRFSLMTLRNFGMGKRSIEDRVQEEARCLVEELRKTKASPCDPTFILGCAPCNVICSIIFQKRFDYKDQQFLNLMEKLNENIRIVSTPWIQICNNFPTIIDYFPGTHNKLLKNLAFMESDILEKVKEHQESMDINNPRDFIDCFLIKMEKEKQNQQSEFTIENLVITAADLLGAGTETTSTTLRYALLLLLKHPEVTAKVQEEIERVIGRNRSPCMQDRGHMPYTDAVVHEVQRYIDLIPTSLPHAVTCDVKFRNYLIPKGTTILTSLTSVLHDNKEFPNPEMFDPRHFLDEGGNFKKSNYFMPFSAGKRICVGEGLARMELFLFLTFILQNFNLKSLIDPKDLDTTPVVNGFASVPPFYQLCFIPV
Chain of Cytochrome P450 2C9 (P11712 whole entry): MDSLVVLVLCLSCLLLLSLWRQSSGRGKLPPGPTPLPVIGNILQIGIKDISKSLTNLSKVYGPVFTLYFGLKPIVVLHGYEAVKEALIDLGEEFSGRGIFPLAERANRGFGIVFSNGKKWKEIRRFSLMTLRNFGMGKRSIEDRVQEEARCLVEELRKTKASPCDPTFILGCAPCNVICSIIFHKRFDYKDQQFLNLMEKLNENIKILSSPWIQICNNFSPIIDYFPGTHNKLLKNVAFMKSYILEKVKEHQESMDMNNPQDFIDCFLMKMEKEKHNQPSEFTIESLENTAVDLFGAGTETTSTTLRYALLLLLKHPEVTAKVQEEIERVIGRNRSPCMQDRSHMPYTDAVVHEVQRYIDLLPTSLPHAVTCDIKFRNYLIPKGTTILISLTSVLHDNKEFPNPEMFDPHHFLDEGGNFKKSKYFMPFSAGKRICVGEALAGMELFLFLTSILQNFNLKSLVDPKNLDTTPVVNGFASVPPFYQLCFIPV
Chain of Glyceraldehyde-3-phosphate dehydrogenase (P04406 whole entry): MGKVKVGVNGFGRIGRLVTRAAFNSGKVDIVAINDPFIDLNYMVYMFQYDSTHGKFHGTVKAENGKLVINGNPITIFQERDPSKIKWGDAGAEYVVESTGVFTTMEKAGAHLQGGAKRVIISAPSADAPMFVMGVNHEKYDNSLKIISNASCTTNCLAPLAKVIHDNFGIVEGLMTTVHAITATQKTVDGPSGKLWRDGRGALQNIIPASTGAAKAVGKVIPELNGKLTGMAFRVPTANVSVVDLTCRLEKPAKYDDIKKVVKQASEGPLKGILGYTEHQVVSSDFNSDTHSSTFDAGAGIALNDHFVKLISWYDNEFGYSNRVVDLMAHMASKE
Chain of FAD-linked sulfhydryl oxidase ALR (P55789 whole entry): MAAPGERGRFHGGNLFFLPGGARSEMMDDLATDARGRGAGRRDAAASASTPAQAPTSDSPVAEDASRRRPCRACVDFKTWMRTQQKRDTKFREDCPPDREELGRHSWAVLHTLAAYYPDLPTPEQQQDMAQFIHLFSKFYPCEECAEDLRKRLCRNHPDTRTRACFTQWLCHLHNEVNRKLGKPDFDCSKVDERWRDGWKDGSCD

## CC(C)(C)NC(=O)C(c1ccccc1)N(Cc1cccs1)C(=O)c1csnn1 (centres undefined)
[1]
  AC50: 6.9 µM (active)
[2]
  AC50: 5.72 µM (active)
[3]
  AC50: 38.5 µM (active)
[4]
  AC50: 8.36 µM (active)

## COc1ccc(-c2c(C)nn3c(N)c(C#N)cnc23)cc1OC
[5]
  EC50: 50.1 µM (active)
[6]
  EC50: > 120 µM (not active)
[7]
  EC50: > 120 µM (not active)
[8]
  IC50: 50 µM (inactive)

## Cc1ccc(S(=O)(=O)Nc2cccc3c2O[C@@H](CN(C)Cc2ccc(C(=O)Nc4ccccc4N)cc2)[C@@H](C)CN([C@@H](C)CO)C3=O)cc1
[9]
  AC50: 2.17 µM (active)

## Cc1ccc(SC(=O)c2c(C)noc2-c2cc(C)on2)cc1
[10]
  AC50: 6.38 µM (active)
Protein RecA
  EC50: 8.74 µM (active)
[11]
  IC50: > 66 µM (inactive)
[12]
  IC50: > 66 µM (inactive)

## COc1cccc2cc3c(=O)n(-c4ccccc4)nc-3oc12
Estrogen receptor beta [13]
  IC50: 15.7 µM (active)
Estrogen receptor beta [14]
  IC50: > 50 µM (not active)

## O=C(C[C@H]1CC[C@@H](NC(=O)Nc2ccccc2F)[C@@H](CO)O1)NCc1ccc(Cl)cc1
[1]
  AC50: 5.2 µM (active)
[2]
  AC50: 5.31 µM (active)
[4]
  AC50: 18.8 µM (active)

## CCc1nnc(NC(=O)Cc2ccc(OCc3c(C)noc3C)cc2)s1
[8]
  IC50: > 64 µM (inactive)

## Oc1ccc(/C=N/NC(=S)Nc2cccnc2)cc1
Large T antigen
  IC50: 19.4 µM (active)
[11]
  IC50: > 66 µM (inactive)
[12]
  IC50: > 66 µM (inactive)

## O=C(CSc1nnc(Cn2nnc(-c3ccccc3)n2)n1-c1ccccc1)Nc1ccc(F)cc1
Prothrombin
  IC50: > 50 µM (not active)

## COc1ccc(NC(=O)Nc2ccc3c(c2)CC(=O)N([C@H](C)CO)C[C@@H](C)[C@@H](CN(C)Cc2ccc(-c4ccccc4)cc2)O3)cc1
[9]
  AC50: 3.14 µM (active)

## CCN(CCCNC(=O)CN(C)S(=O)(=O)c1cccc2nsnc12)c1cccc(C)c1
Ephrin type-A receptor 4
  IC50: > 100 µM (not active)
[15]
  AC50: 3.31 µM (active)

## COc1ccc(S(=O)(=O)Nc2ccc3c(c2)CC(=O)N([C@H](C)CO)C[C@@H](C)[C@@H](CN(C)S(=O)(=O)c2ccc(Cl)cc2)O3)cc1
[9]
  AC50: 1.97 µM (active)

## NS(=O)(=O)c1ccc(CCNC(=O)Cc2cccs2)cc1
[16]
  IC50: > 100 µM (not active)

## Cn1nccc1-c1cc(Cl)cc(Cl)c1O
Prothrombin
  IC50: > 50 µM (not active)

## COc1ccc(NC(=O)Nc2cccc3c2O[C@H](CN(C)Cc2ccc(C(=O)Nc4ccccc4N)cc2)[C@H](C)CN([C@@H](C)CO)C3=O)cc1
[9]
  AC50: 5.98 µM (active)

## COc1ccc(-c2nn3cnnc3s2)cc1OC
Prothrombin
  IC50: > 50 µM (not active)
Cytochrome P450 2C9
  AC50: 1.41 µM (inconclusive)

## Cc1noc(C)c1NC(=O)Nc1cccc2c1O[C@H](CN(C)Cc1ccc(C(F)(F)F)cc1)[C@@H](C)CN([C@H](C)CO)C2=O
[9]
  AC50: 10.4 µM (active)

## CCN(CC)CCCN(Cc1cc2ccc(C)c(C)c2nc1O)C(=O)NC1CCCCC1
Cytochrome P450 2C19
  AC50: 39.8 µM (inconclusive)
[17]
  AC50: > 20 µM (inactive)

## CCSc1nnc(NC(=O)c2ccco2)s1
Prothrombin
  IC50: > 50 µM (not active)

## CC(=O)N(c1ccc2oc(=O)sc2c1)S(=O)(=O)c1ccccc1
Large T antigen
  IC50: 30.3 µM (active)
Ephrin type-A receptor 4
  IC50: > 100 µM (not active)

## O=C(NCc1ccccc1)c1nc(-c2cccs2)no1
Prothrombin
  IC50: > 50 µM (not active)

— ChEMBL document CHEMBL1201862, “PubChem BioAssay data set” (2004)
